Results taken from BigSolDB 2.1.

O=C1Cc2ccccc2N1
Conditions	solubility (mole fraction)
in 1,4-dioxane, 287.15 K	0.276
in 1,4-dioxane, 292.15 K	0.309
in 1,4-dioxane, 296.15 K	0.336
in 1,4-dioxane, 300.15 K	0.363
in 1,4-dioxane, 304.15 K	0.394
in 1,4-dioxane, 308.65 K	0.421
in 1,4-dioxane, 311.65 K	0.448
in 1,4-dioxane, 315.35 K	0.475
in 1,4-dioxane, 319.05 K	0.502
in 1,4-dioxane, 323.15 K	0.529
in 1,4-dioxane, 328.15 K	0.567
in THF, 293.85 K	0.0116
in THF, 298.65 K	0.0133
in THF, 302.95 K	0.0155
in THF, 307.25 K	0.0181
in THF, 312.55 K	0.021
in THF, 317.05 K	0.0243
in THF, 321.35 K	0.0276
in THF, 327.35 K	0.0327
in THF, 333.95 K	0.0397
in acetone, 288.15 K	0.0498
in acetone, 294.05 K	0.0602
in acetone, 299.35 K	0.0707
in acetone, 304.55 K	0.0812
in acetone, 309.65 K	0.0919
in acetone, 314.45 K	0.102
in acetone, 319.55 K	0.112
in acetone, 325.55 K	0.122
in acetone, 328.25 K	0.127
in acetonitrile, 287.15 K	0.0508
in acetonitrile, 292.15 K	0.0628
in acetonitrile, 296.15 K	0.0748
in acetonitrile, 300.15 K	0.0869
in acetonitrile, 304.15 K	0.101
in acetonitrile, 308.65 K	0.123
in acetonitrile, 311.65 K	0.146
in acetonitrile, 315.35 K	0.171
in acetonitrile, 319.05 K	0.196
in acetonitrile, 323.15 K	0.227
in acetonitrile, 328.15 K	0.285
in dichloromethane, 288.15 K	0.0353
in dichloromethane, 292.15 K	0.0383
in dichloromethane, 296.15 K	0.0419
in dichloromethane, 300.15 K	0.0452
in dichloromethane, 304.15 K	0.0485
in dichloromethane, 308.65 K	0.0519
in dichloromethane, 311.65 K	0.0552
in ethanol, 291.95 K	0.00842
in ethanol, 297.95 K	0.0134
in ethanol, 302.95 K	0.0186
in ethanol, 307.65 K	0.0253
in ethanol, 312.55 K	0.0324
in ethanol, 318.05 K	0.0458
in ethanol, 322.65 K	0.0568
in ethanol, 327.95 K	0.0742
in ethanol, 332.65 K	0.0952
in ethyl acetate, 287.15 K	0.141
in ethyl acetate, 292.15 K	0.156
in ethyl acetate, 296.15 K	0.169
in ethyl acetate, 300.15 K	0.184
in ethyl acetate, 304.15 K	0.198
in ethyl acetate, 308.65 K	0.215
in ethyl acetate, 311.65 K	0.233
in ethyl acetate, 315.35 K	0.247
in ethyl acetate, 319.05 K	0.27
in ethyl acetate, 323.15 K	0.287
in ethyl acetate, 328.15 K	0.32
in isopropanol, 291.95 K	0.00673
in isopropanol, 297.95 K	0.00919
in isopropanol, 303.05 K	0.0122
in isopropanol, 308.35 K	0.0155
in isopropanol, 313.15 K	0.0192
in isopropanol, 317.45 K	0.0232
in isopropanol, 322.15 K	0.0287
in isopropanol, 328.35 K	0.0355
in isopropanol, 333.35 K	0.0443
in methanol, 291.95 K	0.00441
in methanol, 297.95 K	0.00563
in methanol, 302.95 K	0.00688
in methanol, 307.65 K	0.00821
in methanol, 312.55 K	0.00977
in methanol, 317.45 K	0.0119
in methanol, 322.15 K	0.0137
in methanol, 327.35 K	0.0163
in methanol, 332.35 K	0.019
in n-butanol, 293.85 K	0.00297
in n-butanol, 298.65 K	0.00379
in n-butanol, 302.95 K	0.00468
in n-butanol, 307.25 K	0.00546
in n-butanol, 312.55 K	0.00674
in n-butanol, 317.05 K	0.00793
in n-butanol, 321.35 K	0.00952
in n-butanol, 327.35 K	0.0115
in n-butanol, 333.95 K	0.0143
in n-propanol, 293.15 K	0.0387
in n-propanol, 299.35 K	0.0476
in n-propanol, 303.05 K	0.0523
in n-propanol, 308.35 K	0.0599
in n-propanol, 313.15 K	0.0677
in n-propanol, 317.05 K	0.0744
in n-propanol, 320.75 K	0.0814
in n-propanol, 328.35 K	0.0976
in n-propanol, 333.35 K	0.109
in toluene, 291.95 K	0.00318
in toluene, 297.95 K	0.00526
in toluene, 302.95 K	0.00796
in toluene, 307.65 K	0.0121
in toluene, 312.55 K	0.018
in toluene, 317.45 K	0.0258
in toluene, 322.15 K	0.0389
in toluene, 327.35 K	0.0615
in toluene, 332.05 K	0.0848
